From PMC7496097, “Establishment of a system for finding inhibitors of ε RNA binding with the HBV polymerase” (Genes to Cells, 2020)

Tests used:
[1] = biological target: T1, Strep‐TP‐spacer‐RT‐His8 (HBVpol 1‐690aa; TP‐RT) (Hepatitis B virus ar/Japan/S-207/1988, UniProt Q9YZR5); assay: surface plasmon resonance; conditions: binding considered nonspecific by the authors (also binds GFP control); unreliable
T1 construct: gene P; residues 1-690 of HBV polymerase (TP, spacer, RT); no polymerase activity detected
T1 sequence (Q9YZR5 1-690): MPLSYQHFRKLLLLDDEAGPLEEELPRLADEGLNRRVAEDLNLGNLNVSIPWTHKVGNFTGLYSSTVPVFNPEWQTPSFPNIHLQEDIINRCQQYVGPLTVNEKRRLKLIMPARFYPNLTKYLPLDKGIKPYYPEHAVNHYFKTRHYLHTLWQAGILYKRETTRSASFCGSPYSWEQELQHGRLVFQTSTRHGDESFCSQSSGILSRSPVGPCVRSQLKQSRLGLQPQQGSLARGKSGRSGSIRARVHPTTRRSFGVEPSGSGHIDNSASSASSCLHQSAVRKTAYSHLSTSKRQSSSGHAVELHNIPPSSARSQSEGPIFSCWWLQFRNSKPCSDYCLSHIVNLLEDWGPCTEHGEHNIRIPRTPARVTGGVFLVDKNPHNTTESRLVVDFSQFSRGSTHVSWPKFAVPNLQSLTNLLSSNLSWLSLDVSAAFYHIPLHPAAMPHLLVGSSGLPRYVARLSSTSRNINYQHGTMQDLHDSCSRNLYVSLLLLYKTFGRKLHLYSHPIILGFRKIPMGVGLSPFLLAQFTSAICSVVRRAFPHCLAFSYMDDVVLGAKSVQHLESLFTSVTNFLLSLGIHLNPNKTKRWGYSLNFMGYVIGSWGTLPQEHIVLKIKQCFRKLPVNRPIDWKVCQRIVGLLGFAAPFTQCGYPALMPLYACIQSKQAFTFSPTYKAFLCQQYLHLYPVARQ

[2] = biological target: T1, Strep‐TP‐spacer‐RT‐His8 (HBVpol 1‐690aa; TP‐RT); assay: plate assay, inhibition of DIG-labelled epsilon RNA binding to immobilised protein, luminescence; conditions: 5 pmol DIG-epsilon RNA WT, pH 7.5, room temperature, 3 hr; binding considered nonspecific by the authors; unreliable
[3] = biological target: T2, Strep‐TP‐spacer‐RT‐His8 (HBVpol 1‐690aa; TP‐RT) (Hepatitis B virus ar/Japan/S-207/1988, UniProt Q9YZR5); assay: as above; conditions: 5 pmol DIG-epsilon RNA WT, pH 7.5, room temperature, 3 hr
T2 construct: gene P; residues 1-690 of HBV polymerase (TP, spacer, RT); no polymerase activity detected

[4] = biological target: T2, Strep‐TP‐spacer‐RT‐His8 (HBVpol 1‐690aa; TP‐RT); assay: surface plasmon resonance; type: binding
[5] = biological target: T3, Strep-TP-spacer-RT-His8 (HBV polymerase TP-spacer-RT), refolded (Hepatitis B virus, UniProt Q9YZR5 1-690); assay: streptavidin plate binding assay (anti-DIG-HRP luminescence); refolded protein; 5 pmol RNA; 50 mM Tris-HCl pH 7.5, 150 mM NaCl, 1 mM EDTA, 0.05% NP-40, 1 mg/ml BSA, 1 ug/ml poly(I/C), 0.1% protease inhibitor cocktail, 2 mM DTT; room temperature, 3 h (competition 30 min); conditions: protein: recombinant, tags: N-terminal Strep, self-annealed
T3 sequence: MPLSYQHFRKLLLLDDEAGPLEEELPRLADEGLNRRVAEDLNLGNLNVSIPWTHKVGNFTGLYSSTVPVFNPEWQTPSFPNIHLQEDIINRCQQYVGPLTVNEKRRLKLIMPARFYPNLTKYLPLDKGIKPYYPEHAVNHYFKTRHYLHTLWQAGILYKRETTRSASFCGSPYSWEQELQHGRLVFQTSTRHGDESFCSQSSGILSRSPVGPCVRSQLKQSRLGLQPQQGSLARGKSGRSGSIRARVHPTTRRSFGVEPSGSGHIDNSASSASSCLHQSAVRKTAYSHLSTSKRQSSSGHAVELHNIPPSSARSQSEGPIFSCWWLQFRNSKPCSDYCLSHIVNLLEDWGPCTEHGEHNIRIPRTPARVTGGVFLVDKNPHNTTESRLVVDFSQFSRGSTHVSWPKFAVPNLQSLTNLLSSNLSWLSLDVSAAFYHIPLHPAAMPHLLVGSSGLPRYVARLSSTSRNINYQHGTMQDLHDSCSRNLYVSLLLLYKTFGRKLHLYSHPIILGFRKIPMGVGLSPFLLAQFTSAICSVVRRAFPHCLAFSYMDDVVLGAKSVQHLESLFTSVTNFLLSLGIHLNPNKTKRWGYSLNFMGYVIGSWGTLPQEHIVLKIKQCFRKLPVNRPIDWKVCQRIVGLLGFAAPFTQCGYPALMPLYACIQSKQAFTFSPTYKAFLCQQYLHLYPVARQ

[6] = biological target: T4, His6-SUMO-TP (Hepatitis B virus, UniProt Q9YZR5 1-177); assay: nickel plate binding assay (anti-DIG-HRP luminescence); 5 pmol RNA; no specific binding; 50 mM Tris-HCl pH 7.5, 150 mM NaCl, 1 mM EDTA, 0.05% NP-40, 1 mg/ml BSA, 1 ug/ml poly(I/C), 0.1% protease inhibitor cocktail, 2 mM DTT; room temperature, 3 h (competition 30 min); conditions: protein: recombinant; tags: N-terminal His6-SUMO; hairpin with central bulge and apical loop, self-annealed
T4 sequence: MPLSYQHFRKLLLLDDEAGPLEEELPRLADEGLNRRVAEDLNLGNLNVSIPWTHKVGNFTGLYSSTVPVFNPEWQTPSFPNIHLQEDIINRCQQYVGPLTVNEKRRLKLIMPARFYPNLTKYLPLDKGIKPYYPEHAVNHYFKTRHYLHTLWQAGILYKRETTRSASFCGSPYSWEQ

NC(Cc1cc(O)c(O)cc1O)C(=O)O (racemic) [6‐hydroxy‐DL‐DOPA]
KD [1]: 11 nM
IC50 [2]: ~ 6.6 µM

CCCCCCCC/C=C\CCCCCCCC(=O)NCCc1ccc(O)c(O)c1 [N‐oleoyldopamine]
IC50 [3]: ~410 nM
Kd [4]: 72 nM

B1: epsilon dBdL RNA (central bulge and apical loop deleted) (structured_RNA)
RNA: UCUCAUGUUCAUGUCCUAGCCUCCAAUUGGGUGGCUUUGGGGCAUGGACAUUGAC
binding result ([5]; hairpin): no binding

B2: epsilon WT RNA (structured_RNA)
RNA: UCUCAUGUUCAUGUCCUACUGUUCAAGCCUCCAAGCUGUGCCUUGGGUGGCUUUGGGGCAUGGACAUUGA
binding result [6]: no binding
binding result ([5]; hairpin with central bulge and apical loop): binds
